Measurements reported in BindingDB's records for doi:10.1016/j.ejmech.2010.02.027 (University of Florida, 2010).

Target: Neuronal acetylcholine receptor subunit alpha-4/beta-2 (Rattus norvegicus, UniProt P09483+P12390)
Assay: Displacement of [3H]cytisine from alpha4beta2 nAChR in rat brain membrane after 3 hrs

Neuronal acetylcholine receptor subunit alpha-4/beta-2, sequence (P09483 whole entry): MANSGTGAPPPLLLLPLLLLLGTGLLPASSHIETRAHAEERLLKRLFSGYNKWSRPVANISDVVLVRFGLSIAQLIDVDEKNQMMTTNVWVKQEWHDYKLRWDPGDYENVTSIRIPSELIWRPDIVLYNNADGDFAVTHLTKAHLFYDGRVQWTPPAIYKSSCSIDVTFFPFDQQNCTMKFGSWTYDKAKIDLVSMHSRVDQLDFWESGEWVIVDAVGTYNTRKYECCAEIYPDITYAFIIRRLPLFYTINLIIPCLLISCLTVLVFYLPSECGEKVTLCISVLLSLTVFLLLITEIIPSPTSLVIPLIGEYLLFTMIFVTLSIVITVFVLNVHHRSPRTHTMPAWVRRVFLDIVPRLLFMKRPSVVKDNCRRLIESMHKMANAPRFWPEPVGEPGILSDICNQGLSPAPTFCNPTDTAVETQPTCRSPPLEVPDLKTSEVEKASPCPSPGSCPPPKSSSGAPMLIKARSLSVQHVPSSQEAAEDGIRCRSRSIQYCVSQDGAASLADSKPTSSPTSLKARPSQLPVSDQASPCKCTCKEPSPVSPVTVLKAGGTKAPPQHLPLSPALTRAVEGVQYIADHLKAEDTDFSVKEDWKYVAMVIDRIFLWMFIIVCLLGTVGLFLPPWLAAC
Neuronal acetylcholine receptor subunit alpha-4/beta-2, sequence (P12390 whole entry): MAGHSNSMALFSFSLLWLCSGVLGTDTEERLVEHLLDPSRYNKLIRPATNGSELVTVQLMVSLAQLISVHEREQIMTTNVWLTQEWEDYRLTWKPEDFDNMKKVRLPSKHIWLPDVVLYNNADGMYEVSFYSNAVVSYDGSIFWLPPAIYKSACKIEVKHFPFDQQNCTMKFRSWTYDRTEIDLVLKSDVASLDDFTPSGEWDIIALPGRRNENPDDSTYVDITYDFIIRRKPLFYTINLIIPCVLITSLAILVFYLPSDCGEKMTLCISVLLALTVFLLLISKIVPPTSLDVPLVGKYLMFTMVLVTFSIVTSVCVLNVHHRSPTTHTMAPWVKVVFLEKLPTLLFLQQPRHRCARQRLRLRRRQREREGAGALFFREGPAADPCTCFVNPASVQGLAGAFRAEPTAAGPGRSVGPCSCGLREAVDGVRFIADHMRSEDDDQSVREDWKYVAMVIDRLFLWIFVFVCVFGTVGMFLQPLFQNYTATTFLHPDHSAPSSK

| Compound | Ki [nM] |
| --- | --- |
| COc1ccc(/C=C2\CCCN=C2c2cccnc2)c(OC(C)C)c1 [3-(2-i-Propoxy-4-methoxybenzylidene)anabaseine] | 770 |
| COc1cc(/C=C2\CCCN=C2c2cccnc2)cc(OC)c1OC [3-(3,4,5-Trimethoxybenzylidene)anabaseine] | 669 |
| CC(=O)Oc1ccc(/C=C2\CCCN=C2c2cccnc2)cc1 [3-(4-Acetoxybenzylidene)anabaseine] | 602 |
| Nc1ccc(/C=C2\CCCN=C2c2cccnc2)cc1 [3-(4-Aminobenzylidene)anabaseine] | 921 |
| CN(C)c1ccc(/C=C2\CCCN=C2c2cccnc2)cc1 [3-(4-Dimethylaminobenzylidene)anabaseine] | 770 |
| CCCc1ccc(/C=C2\CCCN=C2c2cccnc2)cc1 [3-(4-n-Propylbenzylidene)anabaseine] | 51 |
| C(=C1/CCCN=C1c1cccnc1)/c1cc2ccccc2o1 [3-(Benzofuran-2-ylmethylene)anabaseine] | 772 |
| CCC(CC)Oc1cc(OC)ccc1/C=C1\CCCN=C1c1cccnc1 [3-[2-(Pentan-3-yloxy)-4-methoxybenzylidene]anabaseine] | 367 |
| CC(=O)Nc1ccc(/C=C2\CCCN=C2c2cccnc2)cc1 [N-(4-((2-(pyridin-3-yl)-5,6-dihydropyridin-3(4H)-ylidene)methyl)phenyl)acetamide] | 420 |
